Among the data in ChEMBL document CHEMBL5380795, “Design, Synthesis, and Bioactivity Investigation of Cyclic Lipopeptide Antibiotics Containing Eight to Nine Amino Acids” (J Med Chem, 2023) are MIC, IC50 and selectivity ratio values, retold here.

For orientation: MIC means the lowest concentration that inhibits growth of the organism. What is called IC50 is the concentration that inhibits the measured activity by half.

Structures are written as SMILES. ≈ marks a conversion by molar mass, not a printed value.

Data set [1] deals with Staphylococcus aureus. Nature of the data set: Antibacterial activity against methicillin resistant Staphylococcus aureus ATCC 33591 assessed as inhibition of bacterial growth incubated for 18 to 24 hrs by broth microdilution method. Particulars: time 18-24 hrs. Format: functional. A general note: Broth dilution looks for growth in wells or tubes with falling amounts of substance.

For data set [2], the system named is Staphylococcus aureus. Nature of the data set: Antibacterial activity against Staphylococcus aureus ATCC 29213 assessed as inhibition of bacterial growth incubated for 18 to 24 hrs by broth microdilution method. Format: functional. Particulars: time 18-24 hrs.
Data set [3] concerns Staphylococcus epidermidis. Nature of the data set: Antibacterial activity against methicillin resistant Staphylococcus epidermidis clinical isolate 19-5 assessed as inhibition of bacterial growth incubated for 18 to 24 hrs by broth microdilution method. Format: functional. Particulars: time 18-24 hrs.
In data set [4] the test system is Staphylococcus epidermidis. Briefly: Antibacterial activity against methicillin resistant Staphylococcus epidermidis clinical isolate 19-6 assessed as inhibition of bacterial growth incubated for 18 to 24 hrs by broth microdilution method. Type of data set: functional. Particulars: time 18-24 hrs.
For data set [5], the system named is Escherichia coli. Briefly: Antibacterial activity against Escherichia coli ATCC BAA-2523 assessed as inhibition of bacterial growth incubated for 18 to 24 hrs by broth microdilution method. Type of data set: functional. Particulars: time 18-24 hrs.
The subject of data set [6] is Escherichia coli. Nature of the data set: Antibacterial activity against Escherichia coli NCTC 13353 assessed as inhibition of bacterial growth incubated for 18 to 24 hrs by broth microdilution method. Particulars: time 18-24 hrs. Format: functional.
The test system of data set [7] is Escherichia coli. Nature of the data set: Antibacterial activity against Escherichia coli clinical isolate 19-2 assessed as inhibition of bacterial growth incubated for 18 to 24 hrs by broth microdilution method. Type of data set: functional. Particulars: time 18-24 hrs.
Data set [8] relates to Escherichia coli. Briefly: Antibacterial activity against KPC producing Escherichia coli ATCC BAA-2340 assessed as inhibition of bacterial growth incubated for 18 to 24 hrs by broth microdilution method. Format: functional. Particulars: time 18-24 hrs.
Data set [9] relates to Klebsiella pneumoniae. Briefly: Antibacterial activity against carbapenem resistant Klebsiella pneumoniae clinical isolate 19-15 assessed as inhibition of bacterial growth incubated for 18 to 24 hrs by broth microdilution method. Format: functional. Particulars: time 18-24 hrs.
Data set [10] concerns Klebsiella pneumoniae. Nature of the data set: Antibacterial activity against carbapenem resistant Klebsiella pneumoniae clinical isolate 19-17 assessed as inhibition of bacterial growth incubated for 18 to 24 hrs by broth microdilution method. Particulars: time 18-24 hrs. Type of data set: functional.
Data set [11] concerns Klebsiella pneumoniae. Briefly: Antibacterial activity against KPC producing Klebsiella pneumoniae ATCC BAA-1705 assessed as inhibition of bacterial growth incubated for 18 to 24 hrs by broth microdilution method. Format: functional. Particulars: time 18-24 hrs.
For data set [12], the system named is Pseudomonas aeruginosa. Briefly: Antibacterial activity against Pseudomonas aeruginosa clinical isolate 19-1 assessed as inhibition of bacterial growth incubated for 18 to 24 hrs by broth microdilution method. Type of data set: functional. Particulars: time 18-24 hrs.
The subject of data set [13] is Pseudomonas aeruginosa. Briefly: Antibacterial activity against carbapenem resistant Pseudomonas aeruginosa clinical isolate 19-3 assessed as inhibition of bacterial growth incubated for 18 to 24 hrs by broth microdilution method. Particulars: time 18-24 hrs. Type of data set: functional.
Data set [14] deals with Pseudomonas aeruginosa. Briefly: Antibacterial activity against carbapenem resistant Pseudomonas aeruginosa clinical isolate 17-1 assessed as inhibition of bacterial growth incubated for 18 to 24 hrs by broth microdilution method. Format: functional. Particulars: time 18-24 hrs.
Data set [15] relates to Pseudomonas aeruginosa. Briefly: Antibacterial activity against Pseudomonas aeruginosa ATCC 27853 assessed as inhibition of bacterial growth incubated for 18 to 24 hrs by broth microdilution method. Format: functional. Particulars: time 18-24 hrs.
Data set [16] concerns Acinetobacter baumannii. Nature of the data set: Antibacterial activity against carbapenem resistant Acinetobacter baumannii clinical isolate 19-8 assessed as inhibition of bacterial growth incubated for 18 to 24 hrs by broth microdilution method. Type of data set: functional. Particulars: time 18-24 hrs.
Data set [17] has as its system Acinetobacter baumannii. Nature of the data set: Antibacterial activity against oxacillinase-27 producing Acinetobacter baumannii NCTC 13304 assessed as inhibition of bacterial growth incubated for 18 to 24 hrs by broth microdilution method. Particulars: time 18-24 hrs. Type of data set: functional.
Data set [18] is described as follows: Cytotoxicity against human HK-2 cells assessed as inhibition of cell growth incubated for 72 hrs by CCK-8 assay. Format: toxicity, cell-based.
Data set [19] is described as follows: Selectivity index, ratio of IC50 for cytotoxicity against human HK-2 cells to MIC for antibacterial activity against Escherichia coli ATCC BAA-2523. Type of data set: toxicity, cell-based.

As for `CC(C)C[C@@H]1NC(=O)[C@@H](CC(C)C)NC(=O)[C@H](CCN)NC(=O)[C@@H](NC(=O)[C@@H](CCN)NC(=O)CCCCCc2ccccc2)CCNC(=O)[C@H]([C@@H](C)O)NC(=O)[C@H](CCN)NC(=O)[C@H](CCN)NC1=O`, the MIC with Staphylococcus aureus [1] is above 64 µg/mL; with Staphylococcus aureus [2], above 64 µg/mL; in data set [3], 8 µg/mL (≈ 7.98 µM); in data set [4], 64 µg/mL (≈ 63.9 µM); with Escherichia coli [5] it was 16 µg/mL (≈ 16 µM); with Escherichia coli [6] it was 32 µg/mL (≈ 31.9 µM). Further, the MIC in the data set on Escherichia coli [7] was 16 µg/mL (≈ 16 µM); in the data set with Escherichia coli [8], 8 µg/mL (≈ 7.98 µM); with Klebsiella pneumoniae [9] it was above 64 µg/mL; in the data set with Klebsiella pneumoniae [10], above 64 µg/mL; with Klebsiella pneumoniae [11], 8 µg/mL (≈ 7.98 µM); with Pseudomonas aeruginosa [12], 2 µg/mL (≈ 2 µM). Also, the minimal inhibitory concentration (MIC) in the data set on Pseudomonas aeruginosa [13] was 4 µg/mL (≈ 3.99 µM); in the data set on Pseudomonas aeruginosa [14] it was 4 µg/mL (≈ 3.99 µM); in the data set with Pseudomonas aeruginosa [15], 1 µg/mL (≈ 0.998 µM); with Acinetobacter baumannii [16] it was above 64 µg/mL; in the data set on Acinetobacter baumannii [17], above 64 µg/mL. Further, the IC50 at 72 h in data set [18] is 309 µg/mL (≈ 309 µM). The selectivity ratio in data set [19] was determined as 19.3.

With `CCCCCCC[C@@H](O)CC(=O)N[C@H](CCN)C(=O)N[C@H]1CCNC(=O)[C@H]([C@@H](C)O)NC(=O)[C@H](CCN)NC(=O)[C@H](CCN)NC(=O)[C@H]([C@@H](C)O)NC(=O)[C@@H](CC(C)C)NC(=O)[C@H](CCN)NC1=O`, the MIC in the data set on Staphylococcus aureus [1] was above 64 µg/mL; in the data set with Staphylococcus aureus [2], above 64 µg/mL; in data set [3] it was above 64 µg/mL; in data set [4], above 64 µg/mL; in the data set on Escherichia coli [5] it was 2 µg/mL (≈ 2.03 µM); with Escherichia coli [6], 16 µg/mL (≈ 16.2 µM). The MIC in the data set with Escherichia coli [7] is 16 µg/mL (≈ 16.2 µM); with Escherichia coli [8], 4 µg/mL (≈ 4.06 µM); with Klebsiella pneumoniae [9] it was 16 µg/mL (≈ 16.2 µM); in the data set with Klebsiella pneumoniae [10] it was 64 µg/mL (≈ 64.9 µM); in the data set on Klebsiella pneumoniae [11] it was 4 µg/mL (≈ 4.06 µM); with Pseudomonas aeruginosa [12] it was 0.5 µg/mL (≈ 0.507 µM). The MIC in the data set on Pseudomonas aeruginosa [13] is 0.5 µg/mL (≈ 0.507 µM); in the data set on Pseudomonas aeruginosa [14], 0.5 µg/mL (≈ 0.507 µM); in the data set on Pseudomonas aeruginosa [15] it was 0.25 µg/mL (≈ 0.253 µM); in the data set on Acinetobacter baumannii [16], above 64 µg/mL; in the data set with Acinetobacter baumannii [17] it was above 64 µg/mL. Also, in data set [18], the IC50 at 72 h came to 411 µg/mL (≈ 417 µM). Also, the selectivity ratio in data set [19] worked out at 205.

With `CCCCCCCCCC(=O)N[C@@H](C(=O)N[C@H]1CCNC(=O)[C@H]([C@@H](C)O)NC(=O)[C@H](CCN)NC(=O)[C@H](CCN)NC(=O)[C@H](CC(C)C)NC(=O)[C@@H](CC(C)C)NC(=O)[C@H](CCN)NC1=O)[C@H](C)O`, the MIC is above 64 µg/mL with Staphylococcus aureus [1]; above 64 µg/mL in the data set on Staphylococcus aureus [2]; 16 µg/mL (≈ 16.3 µM) in data set [3]; 64 µg/mL (≈ 65.1 µM) in data set [4]; 64 µg/mL (≈ 65.1 µM) in the data set on Escherichia coli [5]; 64 µg/mL (≈ 65.1 µM) in the data set with Escherichia coli [6]. In addition, the minimal inhibitory concentration (MIC) with Escherichia coli [7] amounted to 32 µg/mL (≈ 32.5 µM); with Escherichia coli [8] it was 64 µg/mL (≈ 65.1 µM); in the data set with Klebsiella pneumoniae [9] it was 64 µg/mL (≈ 65.1 µM); in the data set on Klebsiella pneumoniae [10], 64 µg/mL (≈ 65.1 µM); with Klebsiella pneumoniae [11], 32 µg/mL (≈ 32.5 µM); in the data set on Pseudomonas aeruginosa [12] it was 16 µg/mL (≈ 16.3 µM). Also, the minimum inhibitory concentration (MIC) with Pseudomonas aeruginosa [13] is 32 µg/mL (≈ 32.5 µM); with Pseudomonas aeruginosa [14], 32 µg/mL (≈ 32.5 µM); in the data set on Pseudomonas aeruginosa [15], 8 µg/mL (≈ 8.14 µM); in the data set with Acinetobacter baumannii [16], above 64 µg/mL; with Acinetobacter baumannii [17], 64 µg/mL (≈ 65.1 µM). The IC50 at 72 h in data set [18] was 240 µg/mL (≈ 244 µM). For the same compound, in data set [19], the selectivity ratio is 3.8.

`CC[C@H](C)CCCCC(=O)N[C@H](CCN)C(=O)N[C@H]1CCNC(=O)[C@H](CC(C)C)NC(=O)[C@H](CCN)NC(=O)[C@H](CCN)NC(=O)[C@H](CC(C)C)NC(=O)[C@@H](CC(C)C)NC(=O)[C@H](CCN)NC1=O`: the MIC is above 64 µg/mL with Staphylococcus aureus [1]; above 64 µg/mL in the data set on Staphylococcus aureus [2]; 4 µg/mL (≈ 4.08 µM) in data set [3]; 16 µg/mL (≈ 16.3 µM) in data set [4]; 8 µg/mL (≈ 8.16 µM) with Escherichia coli [5]; 16 µg/mL (≈ 16.3 µM) in the data set on Escherichia coli [6]. The MIC stood at 32 µg/mL (≈ 32.6 µM) in the data set on Escherichia coli [7]; 1 µg/mL (≈ 1.02 µM) with Escherichia coli [8]; 8 µg/mL (≈ 8.16 µM) in the data set with Klebsiella pneumoniae [9]; 8 µg/mL (≈ 8.16 µM) with Klebsiella pneumoniae [10]; 1 µg/mL (≈ 1.02 µM) with Klebsiella pneumoniae [11]; 2 µg/mL (≈ 2.04 µM) with Pseudomonas aeruginosa [12]. Also, the MIC worked out at 2 µg/mL (≈ 2.04 µM) with Pseudomonas aeruginosa [13]; 1 µg/mL (≈ 1.02 µM) with Pseudomonas aeruginosa [14]; 1 µg/mL (≈ 1.02 µM) in the data set on Pseudomonas aeruginosa [15]; 8 µg/mL (≈ 8.16 µM) in the data set on Acinetobacter baumannii [16]; 8 µg/mL (≈ 8.16 µM) in the data set on Acinetobacter baumannii [17]. For the same compound, the IC50 at 72 h in data set [18] was found to be 86.9 µg/mL (≈ 88.6 µM). For the same compound, the selectivity ratio in data set [19] came out at 10.9.
